Assay results reported in patent publication US8569327B2, “Phenanthroindolizidine derivative and NFκB inhibitor containing same as active ingredient” (Kabushiki Kaisha Yakult Honsha, priority 2008, dated 2013).
Converted amounts (≈) assume the structure as drawn. Like-named read-outs stand apart in the source and are kept apart here. Values belong to the molecule of their own block, whether it stands above or below them.

Legend:
[1] = tested on: SV40 promoter; assay: SV40 promoter activity, luciferase assay in SW480/SV40-Luc cells; type: cell-based, human; conditions: for IC50: Homo sapiens
Text: (§1) The action of the phenanthroindolizidine alkaloid compound of the present invention on the NFκB activity was studied using a luciferase assay. Human colon cancer SW480 cells were transfected with pNFκB-Luc Plasmid (Stratagene), which is a reporter vector in which a five-time tandem repeat of the NFκB responsive element (NRE) is integrated into the upstream of the luciferase gene, using Lipofectamine 2000 (Invitrogen Corporation) in accordance with the attached operating procedure. Subsequently, the cells were cultured in an RPMI1640 medium containing 10% FBS, 100 U/mL penicillin, 100 μg/mL streptomycin, and 0.5 mg/mL G418 to produce SW480 cells having the luciferase gene, the expression of which is regulated by NRE, stably introduced therein (SW480/NRE-Luc cells). Likewise, SW480 cells were transfected with pGL3-Control Vector (Promega Corporation), which is a reporter vector in which the SV40 promoter is integrated into the upstream of the luciferase gene, to produce SW480 cells having the luciferase gene, the expression of which is regulated by the SV40 promoter, stably introduced therein (SW480/SV40-Luc cells). The SW480/NRE-Luc cells or the SW480/SV40-Luc cells were suspended in an RPMI1640 medium containing 10% FBS, 100 U/mL penicillin, and 100 μg/mL streptomycin (10% FBS/RPMI1640), and then seeded in a 96-well microplate, followed by culturing under conditions of 5% CO2 and at 37° C. (5000 cells/well). After an overnight culture, the compound of the present invention was added, followed by culturing for one hour. Further, 50 ng/mL TNFα (Sigma-Aldrich Corporation) was added, followed by culturing for four hours. Subsequently, a Steady-Glo Luciferase Assay reagent (Promega Corporation) was added, and the luminescent intensity was detected by SpectraMax M5e (Molecular Devices, Inc.) to measure the intracellular luciferase activity. It is to be noted that the action of the compound of the present invention on the NFκB activity or the SV40 promoter activity was shown as IC50 values (the concentration of a test compound needed for 50% inhibition of the induction of the luciferase expression).

[2] = tested on: human non-small cell lung cancer A549 cells; assay: Inhibitory action on the proliferation of A549 cells; type: cell-based; conditions: 96 hours, TetraColor ONE; for IC50: Homo sapiens, A549
Procedure: (§2) The action of the phenanthroindolizidine alkaloid compound of the present invention on the proliferation of human colon cancer SW480 cells, HT-29 cells, and human non-small cell lung cancer A549 cells was studied. The SW480 cells were suspended in a 10% FBS/RPMI1640 and then seeded in a 96-well microplate, followed by culturing in 5% CO2 at 37° C. (2000 cells/well). The A549 cells and the HT-29 cells were each suspended in a DMEM medium containing 10% FBS, 100 U/mL penicillin, and 100 μg/mL streptomycin (10% FBS/DMEM) and a DMEM F-12 HAM medium containing 10% FBS, 100 U/mL penicillin, and 100 μg/mL streptomycin (10% FBS/DMEM F12 HAM), and then seeded in 96-well microplates, followed by culturing in 5% CO2 at 37° C. (1000 cells/well). After an overnight culture, the compound of the present invention was added, followed by further culturing for 48 hours (SW480 cells) and 96 hours (A549 cells and HT-29 cells). After culturing, the number of viable cells was counted using TetraColor ONE (Seikagaku Corporation) in accordance with the attached operating procedure. The results were expressed as the concentration of a test compound needed for 50% inhibition of the proliferation of the cells (IC50).

[3] = tested on: human colon cancer SW480 cells; assay: Inhibitory action on the proliferation of SW480 cells; type: cell-based; conditions: 48 hours, TetraColor ONE; for IC50: Homo sapiens, SW480
Procedure: as §2

[4] = tested on: NFκB; assay: Inhibitory action on the NFκB activity, luciferase assay in SW480/NRE-Luc cells; type: cell-based, human; conditions: for IC50: Homo sapiens
Text: as §1

[5] = tested on: human colon cancer HT-29 cells; assay: Inhibitory action on the proliferation of HT-29 cells; type: cell-based; conditions: 96 hours, TetraColor ONE; for IC50: Homo sapiens, HT-29
Procedure: as §2

[6] = SW480, read-out: SV40 promoter inhibitory activity IC50
[7] = SW480, read-out: NFκB inhibitory activity IC50
[8] = SW480/SV40-Luc cells, luciferase
[9] = SW480/NRE-Luc cells, compound 1 h then 50 ng/mL TNFα 4 h, luciferase

Structure (SMILES): COc1cc2c3c(c4ccccc4c2cc1OC)[C@H](O)[C@@H]1CCCN1C3.Cl [Compound 1, (12aS,13S)-6,7-dimethoxy-9,10,11,12,12a,13-hexahydro-9a-aza-cyclopenta[b]triphenylene-13-ol hydrochloride]
IC50 [1, 6]: > 1000 ng/mL | IC50 [2]: 2.6 ng/mL | IC50 [3]: 5.1 ng/mL | IC50 [4, 7]: 2.7 ng/mL | IC50 [5]: 3.7 ng/mL

Structure (SMILES): CCc1ccc2c3c(c4cc(OC)c(OC)cc4c2c1)CN1CCC[C@H]1[C@H]3O.Cl [Compound 3, (12aS,13S)-3-ethyl-6,7-dimethoxy-9,10,11,12,12a,13-hexahydro-9a-aza-cyclopenta[b]triphenylene-13-ol hydrochloride]
IC50 [1, 6]: > 10000 ng/mL | IC50 [2]: 24.5 ng/mL | IC50 [3]: 219 ng/mL | IC50 [4, 7]: 105 ng/mL | IC50 [5]: 50.8 ng/mL

Structure (SMILES): COc1cc2c3c(c4ccc(F)cc4c2cc1OC)[C@H](O)[C@@H]1CCCN1C3.Cl [Compound 5, (12aS,13S)-3-fluoro-6,7-dimethoxy-9,10,11,12,12a,13-hexahydro-9a-aza-cyclopenta[b]triphenylene-13-ol hydrochloride]
IC50 [1, 6]: > 1000 ng/mL | IC50 [2]: 4.1 ng/mL | IC50 [3]: 39.2 ng/mL | IC50 [4, 7]: 20.7 ng/mL | IC50 [5]: 7.2 ng/mL

Structure (SMILES): COc1cc2c3c(c4ccc(OC(=O)C(C)C)cc4c2cc1OC)[C@H](O)[C@@H]1CCCN1C3.Cl [Compound 9, isobutyric acid(12aS,13S)-13-hydroxy-6,7-dimethoxy-9,10,11,12,12a,13-hexahydro-9a-aza-cyclopenta[b]triphenylene-3-yl ester hydrochloride]
SV40 promoter inhibitory activity IC50 [1, 8]: >100 ng/mL | A549 proliferation inhibitory action IC50 [2]: 0.57 ng/mL | SW480 proliferation inhibitory action IC50 [3]: 0.36 ng/mL | NFκB inhibitory activity IC50 [4, 9]: 0.26 ng/mL | HT-29 proliferation inhibitory action IC50 [5]: 0.38 ng/mL

Structure (SMILES): COc1cc2c3c(c4ccc(OC(=O)C(C)(C)C)cc4c2cc1OC)[C@H](O)[C@@H]1CCCN1C3.Cl [Compound 10, 2,2-dimethyl-propionic acid(12aS,13S)-13-hydroxy-6,7-dimethoxy-9,10,11,12,12a,13-hexahydro-9a-aza-cyclopenta[b]triphenylene-3-yl ester hydrochloride]
SV40 promoter inhibitory activity IC50 [1, 8]: >100 ng/mL | A549 proliferation inhibitory action IC50 [2]: 0.14 ng/mL | SW480 proliferation inhibitory action IC50 [3]: 0.73 ng/mL | NFκB inhibitory activity IC50 [4, 9]: 0.49 ng/mL | HT-29 proliferation inhibitory action IC50 [5]: 0.47 ng/mL

Structure (SMILES): COc1cc2c3c(c4ccc(OC(=O)c5cccnc5)cc4c2cc1OC)[C@H](O)[C@@H]1CCCN1C3.Cl [Compound 11, nicotinic acid(12aS,13S)-13-hydroxy-6,7-dimethoxy-9,10,11,12,12a,13-hexahydro-9a-aza-cyclopenta[b]triphenylene-3-yl ester hydrochloride]
SV40 promoter inhibitory activity IC50 [1, 8]: >10 ng/mL | A549 proliferation inhibitory action IC50 [2]: 0.028 ng/mL | SW480 proliferation inhibitory action IC50 [3]: 0.50 ng/mL | NFκB inhibitory activity IC50 [4, 9]: 0.48 ng/mL | HT-29 proliferation inhibitory action IC50 [5]: 0.44 ng/mL

Structure (SMILES): COc1cc2c3c(c4ccc(OC(=O)c5ccncc5)cc4c2cc1OC)[C@H](O)[C@@H]1CCCN1C3.Cl [Compound 12, isonicotinic acid(12aS,13S)-13-hydroxy-6,7-dimethoxy-9,10,11,12,12a,13-hexahydro-9a-aza-cyclopenta[b]triphenylene-3-yl ester hydrochloride]
SV40 promoter inhibitory activity IC50 [1, 8]: >100 ng/mL | A549 proliferation inhibitory action IC50 [2]: 0.19 ng/mL | SW480 proliferation inhibitory action IC50 [3]: 0.51 ng/mL | NFκB inhibitory activity IC50 [4, 9]: 0.33 ng/mL | HT-29 proliferation inhibitory action IC50 [5]: 0.62 ng/mL

Structure (SMILES): CCC(=O)Oc1ccc2c3c(c4cc(OC)c(OC)cc4c2c1)CN1CCC[C@H]1[C@H]3O.Cl [Compound 15, propionic acid(12aS,13S)-13-hydroxy-6,7-dimethoxy-9,10,11,12,12a,13-hexahydro-9a-aza-cyclopenta[b]triphenylene-3-yl ester hydrochloride]
SV40 promoter inhibitory activity IC50 [1, 8]: >100 ng/mL | A549 proliferation inhibitory action IC50 [2]: 0.35 ng/mL | SW480 proliferation inhibitory action IC50 [3]: 0.39 ng/mL | NFκB inhibitory activity IC50 [4, 9]: 0.20 ng/mL | HT-29 proliferation inhibitory action IC50 [5]: 0.62 ng/mL

Structure (SMILES): COc1cc2c3c(c4ccc(NC(=O)OCC(C)C)cc4c2cc1OC)[C@H](O)[C@@H]1CCCN1C3.Cl [Compound 18, ((12aS,13S)-13-hydroxy-6,7-dimethoxy-9,10,11,12,12a,13-hexahydro-9a-aza-cyclopenta[b]triphenylene-3-yl)-carbamic acid isobutyl ester hydrochloride]
IC50 [1, 6]: > 1000 ng/mL | IC50 [2]: 16.2 ng/mL | IC50 [3]: 27.6 ng/mL | IC50 [4, 7]: 15.5 ng/mL | IC50 [5]: 18.1 ng/mL

Structure (SMILES): COc1cc2c3c(c4ccc(OC(=O)c5ccoc5)cc4c2cc1OC)[C@H](O)[C@@H]1CCCN1C3.Cl [Compound 22, furan-3-carboxylic acid(12aS,13S)-13-hydroxy-6,7-dimethoxy-9,10,11,12,12a,13-hexahydro-9a-aza-cyclopenta[b]triphenylene-3-yl ester hydrochloride]
SV40 promoter inhibitory activity IC50 [1, 8]: >1000 ng/mL | A549 proliferation inhibitory action IC50 [2]: 1.1 ng/mL | SW480 proliferation inhibitory action IC50 [3]: 2.8 ng/mL | NFκB inhibitory activity IC50 [4, 9]: 1.7 ng/mL | HT-29 proliferation inhibitory action IC50 [5]: 1.9 ng/mL

Structure (SMILES): COc1cc2c3c(c4ccc(OC(=O)c5ccsc5)cc4c2cc1OC)[C@H](O)[C@@H]1CCCN1C3.Cl [Compound 23, thiophene-3-carboxylic acid(12aS,13S)-13-hydroxy-6,7-dimethoxy-9,10,11,12,12a,13-hexahydro-9a-aza-cyclopenta[b]triphenylene-3-yl ester hydrochloride]
SV40 promoter inhibitory activity IC50 [1, 8]: >100 ng/mL | A549 proliferation inhibitory action IC50 [2]: 0.76 ng/mL | SW480 proliferation inhibitory action IC50 [3]: 3.1 ng/mL | NFκB inhibitory activity IC50 [4, 9]: 4.1 ng/mL | HT-29 proliferation inhibitory action IC50 [5]: 1.4 ng/mL

Structure (SMILES): COc1cc2c3c(c4ccc(OC(=O)CCCCCCC(=O)Oc5ccc6c7c(c8cc(OC)c(OC)cc8c6c5)CN5CCC[C@H]5[C@H]7O)cc4c2cc1OC)[C@H](O)[C@@H]1CCCN1C3.Cl [Compound 24, octanedionic acid(9S,12S)-13-hydroxy-6,7-dimethoxy-9,10,11,12,12a,13-hexahydro-9a-aza-cyclopenta[b]triphenylene-3-yl ester(12aS,13S)-13-hydroxy-6,7-dimethoxy-9,10,11,12,12a,13-hexahydro-9a-aza-cyclopenta[b]triphenylene-3-yl ester hydrochloride]
SV40 promoter inhibitory activity IC50 [1, 8]: >100 ng/mL | A549 proliferation inhibitory action IC50 [2]: 0.18 ng/mL | SW480 proliferation inhibitory action IC50 [3]: 0.77 ng/mL | NFκB inhibitory activity IC50 [4, 9]: 0.90 ng/mL | HT-29 proliferation inhibitory action IC50 [5]: 0.24 ng/mL

Structure (SMILES): COc1cc2c3c(c4ccc(N)cc4c2cc1OC)[C@H](O)[C@@H]1CCCN1C3.Cl [Compound 25, (12aS,13S)-3-amino-6,7-dimethoxy-9,10,11,12,12a,13-hexahydro-9a-aza-cyclopenta[b]triphenylene-13-ol hydrochloride]
IC50 [1, 6]: > 100 ng/mL | IC50 [2]: 0.4 ng/mL | IC50 [3]: 2.3 ng/mL | IC50 [4, 7]: 1.1 ng/mL | IC50 [5]: 0.28 ng/mL

IC50 ([1]; SW480/SV40-Luc cells, luciferase, read-out: SV40 promoter inhibitory activity IC50): > 10000 ng/mL | IC50 ([4]; SW480/NRE-Luc cells, compound 1 h then 50 ng/mL TNFα 4 h, luciferase, read-out: NFκB inhibitory activity IC50): 2400 ng/mL (≈ 16.3 µM)
Structure (SMILES): S=C(S)N1CCCC1 [PDTC, pyrrolidine dithiocarbamate, reference compound]
